Experiments:
[1] = test system: SCN1a+/− (Dravet) mice; assay: DMBP (degraded myelin basic protein) immunostaining score of myelin debris in brain sections, murine model of Dravet syndrome; format: in vivo, mouse; conditions: for DMBP Avg Score, Ctx / DMBP Avg Score, Hipp / DMBP Avg Score, Hipp + Ctx: Het mice, s.c. once daily P7 to P35-P37, FFA 15 mg/kg, diazepam 10 mg/kg; for DMBP Avg Score, Ctx: cortex; for DMBP Avg Score, Ctx / DMBP Avg Score, Hipp: scale 0-5; for DMBP Avg Score, Hipp: hippocampus, p = 0.00015 Het FFA vs Het vehicle; for DMBP Avg Score, Hipp + Ctx: sum of hippocampus and cortex, maximum 10, p = 0.01 Het FFA vs Het vehicle; for effect on myelin debris (D-MBP) score vs vehicle (saline): hippocampus and cortex of P35-P37 SCN1a+/− mice, 2-tail unequal variance t-test, FIG. 2
From the text: (§1) Epilepsy is increasingly recognized as a disease of white matter pathology and damage, see Hatton, S. N. et al [Epilepsy Currents 2021 21:27-29]. To test whether fenfluramine reduced pathology and damage to myelin, a mouse model of Dravet syndrome was used. […] Heterozygous Dravet animals used in the studies reported in Examples 2 and 3 are Scn1atm1Kea 50% C57BL/6J, 50% 129S6/SvEvTac background strain mice generated as described in Miller, A. R. et al. [Genes Brain Behav. 2014 February; 13(2): 163-172]. Briefly, a heterozygous Scn1a+/− null allele was generated by targeted deletion of the first coding exon in TL1 ES cells (12956/SvEvTac). These mice were established and maintained as a co-isogenic strain on the 12956/SvEvTac (129) background. […] P ranges, stated as, e.g. P35-P37, indicate the days postnatal of the study animals Normal axonodendritic, axonosomatic and axonoaxonic synaptic pruning occurs in all mice and peaks at postnatal P21. Postnatal ages for the study animals were chosen to avoid periods of high natural demyelination and microglial activity.
(§2) In Heterozygous Animals, drug or saline sham treatment began at age P7 (i.e., 7 days after birth) with subcutaneous administration of drug or saline injected via insulin syringes.
(§3) At day 7 all pups in each litter were administered an injection volume of 10 μl/g body weight once per day containing: 1) fenfluramine at 15 mg/kg; 2) diazepam at 10 mg/kg; or 3) vehicle (0.9% saline solution), each injection volume based on body weight.
(§4) The administration of each intervention continued every day until age P35-P37, at which time animals were sacrificed to obtain blood and brain tissues which amounted to an aggregate of 28 to 30 days of once daily dosing.
Mice at the end of the dosing period were isoflurane anaesthetized and blood was drawn through cardiac ventricular puncture without perforating the heart or vessels for subsequent perfusion fixation. Blood was processed for plasma and stored at −80C. After creating an incision in the hepatic circulation to allow perfusates an exit point, mice were flushed of remaining blood with 6 mL ice cold phosphate buffered saline through the left ventricle of the heart. Mice were then perfusion fixed with an additional 6 mL of ice cold 4% paraformaldehyde before carefully harvesting right brains into 10% neutral buffered formalin for 24 hours before transferring into phosphate buffered saline with 0.02% sodium azide as an antimicrobial preservative. Right brains were then embedded to paraffin blocks and processed as formalin fixed, paraffin embedded (FFPE) 5 μm thick sagittal sections on glass slides. These FFPE tissues were immunostained, processed, and imaged for degraded myelin and inflammatory microglia.
DMBP antibody (“degraded” Myelin Basic Protein, Anti-Myelin Basic Protein, Millipore Sigma antibody, formerly Sigma AB5864) was applied at 1:1000 dilution with no antigen retrieval. This antibody preferentially detects debris of myelin degradation in human samples without cross reacting to normal myelin. Vector ImPRESS-AP alkaline phosphatase conjugated anti-rabbit IgG (Vector Laboratories) was applied in the secondary detection step with Vector Blue AP substrate as the chromogen. Nuclear Fast Red was applied as a non-specific tissue counterstain before dehydration, clearing, and coverslip mounting steps. Vector Blue signals within finished slides were visualized with the DAPI (UV) excitation/emission channel on an Echo Revolve fluorescence microscope under the 20× objective. Non-specific Nuclear Fast Red staining was visualized under the Texas Red excitation/emission channel to provide anatomical contexts to the overlaid DMBP signals.

[2] = test system: SCN1a+/− (Dravet) mice; assay: CD11b+ activated microglia immunostaining score in brain sections, murine model of Dravet syndrome; format: in vivo, mouse; conditions: for CD11b Avg Score, Genu / CD11b Avg Score, PP / CD11b Avg Score, PP + Genu: Het mice, s.c. once daily P7 to P35-P37, FFA 15 mg/kg, diazepam 10 mg/kg; for CD11b Avg Score, Genu: genu of corpus callosum; for CD11b Avg Score, Genu / CD11b Avg Score, PP: scale 0-5; for CD11b Avg Score, PP: perforant pathway of hippocampus; for CD11b Avg Score, PP + Genu: sum of perforant pathway and genu, maximum 10, p = 0.05 Het FFA vs Het vehicle; for effect on CD11b+ activated microglia vs vehicle (saline): genu and perforant pathway of P35-P37 SCN1a+/− mice, 2-tail unequal variance t-test, FIG. 4
From the text: as §1, §2, §3, §4
Vector ImPRESS-AP alkaline phosphatase conjugated anti-rabbit IgG (Vector Laboratories) was applied in the secondary detection step with Vector Blue AP substrate as the chromogen. Nuclear Fast Red was applied as a non-specific tissue counterstain before dehydration, clearing, and coverslip mounting steps. Vector Blue signals within finished slides were visualized with the DAPI (UV) excitation/emission channel on an Echo Revolve fluorescence microscope under the 20× objective. Non-specific Nuclear Fast Red staining was visualized under the Texas Red excitation/emission channel to provide anatomical contexts to the overlaid CD11b signals. Perfusion fixed sagittal 5 um FFPE brain sections within approximately 300 um from the midline of the right brains of the P35-P37 wildtype and SCN1A heterozygous 50% B6/50% 129S6 mice from the Fintepla/Diazepam/Saline comparator study were examined for CD11b+ microglia.
A 0-5 ascending pathologist scale was applied in scoring CD11b+ microglia in the perforant pathway of the hippocampus following the hippocampal fissure and murine white matter in the front knob, “genu,” of the corpus callosum (CC). The CC is an elongated midline structure composed of 200-800 million horizontal interconnecting cortical areas. The mature CC contains both myelinated and unmyelinated fibers as well as glial cells (astrocytes and oligodendrocytes), and neurons. The human CC has been divided into five anatomical regions, which include from front to back, the rostrum, the genu, the body or trunk-often subdivided into anterior, middle and posterior body-the isthmus, and the splenium. Most neurons in the callosal fibers release excitatory amino acids (glutamate or aspartate), however a small proportion of GABAergic neurons have been identified in mammals
The scores of the genu and perforant pathway were summed for each animal for a maximum possible score of 10. This antibody preferentially detects activated microglia over surveilling, quiescent microglia across human, rat, and mouse species. Normal, healthy mice have more basal microglial activation in the CNS compared to the normal human CNS.

[3] = test system: SCN1a+/− (het) mice; assay: Kaplan Meier estimation of survival in SCN1a+/− (het) mice; format: in vivo, mouse; conditions: P1-P40 SCN1a+/− (het) mice, compared to both placebo and diazepam treatment; FIG. 6
From the text: as §1

[4] = molecular target: T1, RNF43 (Homo sapiens, UniProt Q68DV7); assay: 3H-fenfluramine binding to proteins expressed on reverse-transfected HEK293 cell arrays (phosphorimaging); conditions: tritium labeled fenfluramine, 1 or 5 micromolar in confirmation; HEK293 cells; FIG. 1
T1 construct: arrays of expression vectors, encoding full-length human plasma membrane and tethered secreted proteins; expressed in transfected cells; host or cells: HEK293
T1 sequence (Q68DV7 24-783): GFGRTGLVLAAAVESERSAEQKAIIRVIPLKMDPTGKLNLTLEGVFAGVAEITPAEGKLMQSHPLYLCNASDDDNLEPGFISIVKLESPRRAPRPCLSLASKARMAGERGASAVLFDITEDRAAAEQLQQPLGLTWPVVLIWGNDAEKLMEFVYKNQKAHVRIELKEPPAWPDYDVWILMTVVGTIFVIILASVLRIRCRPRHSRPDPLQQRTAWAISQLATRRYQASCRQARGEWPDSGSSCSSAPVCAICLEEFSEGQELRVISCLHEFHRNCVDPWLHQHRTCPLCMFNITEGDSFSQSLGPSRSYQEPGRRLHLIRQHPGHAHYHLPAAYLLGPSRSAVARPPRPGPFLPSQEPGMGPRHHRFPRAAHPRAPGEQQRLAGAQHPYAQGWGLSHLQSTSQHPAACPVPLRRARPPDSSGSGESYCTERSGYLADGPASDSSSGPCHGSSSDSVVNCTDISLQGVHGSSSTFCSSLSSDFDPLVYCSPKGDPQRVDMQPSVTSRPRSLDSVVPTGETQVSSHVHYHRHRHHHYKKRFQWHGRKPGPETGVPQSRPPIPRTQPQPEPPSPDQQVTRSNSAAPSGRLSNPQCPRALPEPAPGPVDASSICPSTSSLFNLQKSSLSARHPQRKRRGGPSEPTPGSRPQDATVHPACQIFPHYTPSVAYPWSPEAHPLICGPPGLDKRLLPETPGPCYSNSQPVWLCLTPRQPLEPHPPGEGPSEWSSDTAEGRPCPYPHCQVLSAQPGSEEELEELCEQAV
Method: (§5) Briefly, arrays of expression vectors, encoding full-length human plasma membrane and tethered secreted proteins, were spotted onto coated slides, then HEK293 cells were grown over the top of the spots and became reverse-transfected resulting in cell surface expression of each respective protein at distinct slide locations. Tritium labeled fenfluramine was applied and specific binding analyzed and confirmed using a phosphorimaging technique. […] Confirmation was achieved by repeating the study with vectors encoding RNF43 and sigma-1 receptor proteins spotted onto slides, upon which HEK293 cells were reverse-transfected. Identical slides were treated before or after cell fixation with 1 micromolar or 5 micromolar 3H-fenfluramine, 20 nanomolar 3H-naloxone, or no compound (n=2 slides per treatment).

[5] = molecular target: T2, sigma-1 receptor (Homo sapiens, UniProt Q99720); assay: as above; conditions: tritium labeled fenfluramine, 1 or 5 micromolar in confirmation; HEK293 cells
T2 construct: arrays of expression vectors, encoding full-length human plasma membrane and tethered secreted proteins; expressed in transfected cells; host or cells: HEK293
Method: as §5

T2 sequence (Q99720 whole entry): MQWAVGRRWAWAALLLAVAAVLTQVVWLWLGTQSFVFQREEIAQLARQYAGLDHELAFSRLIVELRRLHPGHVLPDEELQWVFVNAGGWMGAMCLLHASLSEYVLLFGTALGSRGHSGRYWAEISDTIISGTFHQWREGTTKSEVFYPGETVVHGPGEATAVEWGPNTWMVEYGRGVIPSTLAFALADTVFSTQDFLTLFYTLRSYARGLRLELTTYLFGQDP

SMILES | DMBP Avg Score, Ctx [1] | DMBP Avg Score, Hipp [1] | DMBP Avg Score, Hipp + Ctx [1] | effect on myelin debris (D-MBP) score vs vehicle (saline) [1] | CD11b Avg Score, Genu [2] | CD11b Avg Score, PP [2] | CD11b Avg Score, PP + Genu [2] | effect on CD11b+ activated microglia vs vehicle (saline) [2] | probability of survival over time [3] | binding interaction with RNF43 [4] | binding interaction with sigma-1 [5]
CCNC(C)Cc1cccc(C(F)(F)F)c1 (racemic) [FFA, (RS)-N-ethyl-1-[3-(trifluoromethyl)phenyl]propan-2-amine] | 2.54 | 2.62 | 5.15 | significantly reduced the myelin debris (D-MBP) score | 2.54 | 2.77 | 5.31 | reduced activated microglia | increases the probability of survival | interactions were identified in the primary screen | interactions were identified in the primary screen
CN1C(=O)CN=C(c2ccccc2)c2cc(Cl)ccc21 [Diazepam, diazepam] | 2.44 | 3.22 | 5.67 | not significant | 3.00 | 3.67 | 6.67 | not significant | – | – | –

Reference: patent publication US20230078820A1, “FE[…] TREATMENT OF DEMYELINATING DISEASES AND CONDITIONS” (ZOGENIX INTERNATIONAL LIMITED, priority 2021, published 2023)
